# Measurements as given in publication PMC11329928, “Design, synthesis and structure-activity relationship (SAR) studies of an unusual class of non-cationic fatty amine-tripeptide conjugates as novel synthetic antimicrobial agents” (Frontiers in Pharmacology, 2024).
# Counter-ions that a name gives are not always drawn.
# Columns and labels:
# [1] = Calcein release from LUVs; settings: 10 μM DICAM, 25°C; for Leak of calcein from pure POPG LUVs, result in words: vesicle buffer (10 mM Tris, 140 mM NaCl, 0.5 mM EDTA, pH 7.4), fluorescence 480/550 nm, normalised to 0.025% Triton-X100; for Permeation of DOPE:POPG:CL (80:15:5) LUVs, result in words: vesicle buffer pH 7.4, calcein release
# Description: LUVs were prepared for calceine liberation assays as described ([Chongsiriwatana and Barron, 2009]). Lipid composition (mole %) of LUVs was: POPG (100), POPG:CL (80:20), POPG:CL:DOPE ([…]), and POPG:CL:GlcDAG (75:5:20). Briefly, the nitrogen-dried lipid mixture was dissolved at 1.25 mM with 100 mM calceine in vesicle buffer (10 mM Tris, 140 mM NaCl, 0.5 mM EDTA, pH 7.4) followed by five thaw-freeze cycles. Calceine-entrapped LUVs were prepared by extrusion through 100 nm polycarbonate membranes (Avanti Polar Lipids). Non-entrapped calceine was separated from LUVs by gel filtration on a Sephacryl® S200-HR column (Sigma). LUVs permeabilization was monitored at 25°C by fluorescence emission at 550 nm (λex = 480 nm) as a function of time in a Fluoromax-4 spectrofluorometer (Horiba, France) using agitation. Signal stabilization of samples (1,500 µL vesicle buffer plus 45 µL LUVs) was recorded for 5 min before 10 µM final DICAM addition, and calcein release was monitored for a maximum of 20 min. After incubation, samples were solubilized in Triton X-100 (0.025%) and the fluorescence signal recorded thereafter was used to normalize the entire data set. Solubilization of DICAM-untreated LUVs in Triton X-100 was used as a positive control. No perturbation was detected in controls containing DMSO.
# [2] = test system: S. pneumoniae D39; experiment: Viability after challenge at mid-exponential (T2) or early stationary (T3) phase; type: cell-based, Streptococcus pneumoniae; settings: S. pneumoniae D39, 50 µM, C+Y, 37°C
# Description: The effect of DICAMs at different phases of culture growth was also investigated. DICAMs (50 μM) were added to cultures in the early exponential phase (OD550 ≈ 0.15; T1), late exponential phase (OD550 ≈ 0.3–0.4; T2), or near the stationary phase of growth (OD550 ≈ 0.5–0.7; T3) and the evolution of OD values was followed at 37°C for at least 2 h. By default, the variation in cell viability was also determined. Negative and positive controls were run in parallel.
# [3] = test system: S. pyogenes T membrane; experiment: Membrane permeation, SYTOX Green; type: cell-based, Streptococcus pyogenes
# Description: (§1) Permeation and depolarization of S. pyogenes ^T membrane by DICAMs were assayed with the fluorescent probes SYTOX Green and DiSC3(5), respectively, in a Varioskan Flash microplate reader (Thermo Scientific; Spain) using FluoroNunc 96-well plates (Thermo Scientific; Spain). For permeation assays, cells were grown to an OD550 ≈ 0.3, washed once with PBS pH 7.2 (3,800 × g, 7 min, room temperature), and adjusted to a final OD550 ≈ 0.4 (∼10^8 CFU/mL) with the same buffer before mixing in the dark with SYTOX Green (5 µM final concentration). One hundred µL of this suspension was dispensed per plate well and the signal stabilization was monitored for 15 min (λex = 485 nm; λem = 520 nm). Then, 100 µL of two-fold serially diluted lipopeptide samples was added and changes in fluorescence intensity were registered for 60 min at 37°C. SYTOX Green (900 Da) binds to intracellular DNA when the cell membrane is damaged, thereby increasing fluorescence intensity ([Roth et al., 1997]). Positive controls (100% membrane permeabilization) were carried out by adding Titron X-100 (0.01% final concentration) to untreated bacterial samples ([Rathinakumar et al., 2009]). For membrane depolarization assays, 180 µL of an OD550 ≈ 0.2 culture (BHI; ≈ 10^7 CFU/mL) supplemented with DiSC3(5) (1 µM final concentration) was distributed per well, and signal stabilization was registered for 30 min (λex = 622 nm; λem = 670 nm) ([Te Winkel et al., 2016]). Subsequently, 20 µL of a two-fold serial dilution of lipopeptide in culture medium was added, and fluorescence intensity was recorded for 60 min at 37°C. Partition of DiSC3(5) to the surface of polarized cells decreases the probe fluorescence, and its release, caused by membrane depolarization, results in an increase in fluorescence. […] The background signal of controls with bacterial cells without the fluorescent probe, as well as the dye fluorescence in the presence of the tested compounds without bacteria, were also registered. No change in the fluorescence intensity of the probes occurred upon DICAM addition in the absence of bacterial cells.
# [4] = test system: S. pyogenes T membrane; experiment: Membrane depolarization, DiSC3(5); type: cell-based, Streptococcus pyogenes; settings: S. pyogenes T in BHI, OD550 ≈ 0.2, DiSC3(5) 1 µM, 37°C
# Description: as §1
compound,measurement,setting,value
Ala - Pro -Glu-NH-C18H37 · HCl [DICAM 23],"Leak of calcein from pure POPG LUVs, result in words",[1],full
"CCCCCCCCCCCCCCCCCCNC(=O)[C@H](CCC(=O)O)NC(=O)[C@H]1CCCN1C(=O)[C@H](C)N [DICAM 4, Ala- Pro -Glu-NH-C18H37 ·HCl]","Death, addition at T3, approximately 3 h",[2],≥ 98%
same,"Decrease of viability, addition at T3, approximately 3 h",[2],≈ 1.7 log units
same,"Decrease of viability, addition at T2, 30 min",[2]; 30 min incubation,≈ 3 log units
same,"Decrease of viability, addition at T2, 3 h",[2]; 3 h incubation,~5 log units
same,"Leak of calcein from pure POPG LUVs, result in words",[1],full
same,"Permeation of DOPE:POPG:CL (80:15:5) LUVs, result in words",[1],did not permeate
"CCCCCCCCCCCCCCCCCCNC(=O)[C@H](CCC(=O)O)NC(=O)[C@H]1CCCN1C(=O)[C@H](CCCN)NC(=O)OCc1ccccc1 [DICAM 21, Cbz-Orn- Pro -Glu-NH-C18H37]","Permeation of DOPE:POPG:CL (80:15:5) LUVs, result in words",[1],able to permeate and release calcein
"CCCCCCCCCCCCCCCCCCNC(=O)[C@H](CCC(=O)O)NC(=O)[C@H]1CCCN1C(=O)[C@@H](N)CCC(=O)O [DICAM 20, Glu- Pro -Glu-NH-C18H37 · HCl]","Leak of calcein from pure POPG LUVs, result in words",[1],partial
"CCCCCCCCCCCCCCCCCCNC(=O)[C@H](CCC(=O)O)NC(=O)[C@H]1CCCN1C(=O)[C@H](C)NC(=O)OCc1ccccc1 [DICAM 3, Cbz-Ala- Pro -Glu-NH-C18H37]",Lag before steady increase in SYTOX Green fluorescence,"[3]; S. pyogenes T in PBS pH 7.2, SYTOX Green 5 µM, 37°C, dose-dependent lag",more than 7 min
same,Time to plateau of SYTOX green influx (incomplete influx),"[3]; S. pyogenes T, below 12.5 µM compound",around 40 min
same,Time for dissipation of the transmembrane potential,[4],5 to 10 min
"CCCCCCCCCCCCCCCCCCNC(=O)[C@H](CCC(=O)O)NC(=O)[C@H]1CCCN1C(=O)[C@H](CCC(=O)O)NC(=O)OCc1ccccc1 [DICAM 19, Cbz-Glu- Pro -Glu-NH-C18H37]",Time for dissipation of the transmembrane potential,[4],5 to 10 min
"CCCCCCCCCCCCCCCCCCNC(=O)[C@H](CCC(=O)O)NC(=O)[C@H]1CCCN1C(=O)[C@@H](N)CC(N)=O [DICAM 2, Asn- Pro -Glu-NH-C18H37 ·HCl]","Permeation of DOPE:POPG:CL (80:15:5) LUVs, result in words",[1],did not permeate
